The results in this text go back to PubChem BioAssay (NCI).

Test systems include KM12 colon; IGROV1 ovarian; NCI-H226 lung; MDA-MB-231 breast; ACHN renal; RPMI-8226 leukemia; EKVX NSCLC; U251 CNS; HCT-15 colon; MOLT-4 leukemia.
What all share (test): NCI-60 cell line screen, 48 h

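Briefly, cells in 96-well plates were exposed to five compound concentrations for 48 h, and endpoints were estimated by linear interpolation. Abbreviation: GI50, concentration required for 50% inhibition of growth. TGI is the concentration that stops growth completely.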

On to `COc1c(N2CCN(CN3C(=O)C(=O)c4cc(Cl)ccc43)C(C)C2)c(F)cc2c(=O)c(C(=O)O)cn(C3CC3)c12` (stereo not drawn), for which the GI50 in the test on KM12 colon is 35.2 µM; with IGROV1 ovarian it was over 100 µM; in the test on NCI-H226 lung, 71 µM; in the test on MDA-MB-231 breast, 27.3 µM; with ACHN renal, 32.1 µM; with RPMI-8226 leukemia, 9.07 µM. The GI50 in the test with EKVX NSCLC is 13.7 µM; in the test with U251 CNS, 41.3 µM; in the test with HCT-15 colon, 31.7 µM; in the test with MOLT-4 leukemia it was 4.98 µM. Further, the TGI in the test on KM12 colon was over 100 µM; with IGROV1 ovarian it was over 100 µM; with NCI-H226 lung it was over 100 µM; in the test on MDA-MB-231 breast, over 100 µM; with ACHN renal, over 100 µM; in the test with RPMI-8226 leukemia it was 25.7 µM. Besides, the TGI with EKVX NSCLC, in the test with U251 CNS, in the test on HCT-15 colon and in the test with MOLT-4 leukemia was over 100 µM each time.
`CC(C)(C)OC(=O)NCc1cccc(N=C=S)c1`: the GI50 was 16.5 µM in the test on KM12 colon; 19.3 µM in the test with IGROV1 ovarian; 19.1 µM with NCI-H226 lung; 25.7 µM with MDA-MB-231 breast; 21.1 µM in the test with ACHN renal; 17.2 µM in the test on RPMI-8226 leukemia. Further, the GI50 in the test on EKVX NSCLC is 23.4 µM; in the test with U251 CNS, 23 µM; in the test with HCT-15 colon it was 16.6 µM; in the test on MOLT-4 leukemia, 19.7 µM. Also, the TGI with KM12 colon was 32.8 µM; with IGROV1 ovarian it was 41.8 µM; in the test on NCI-H226 lung it was 51.4 µM; with MDA-MB-231 breast it was over 85.7 µM; in the test with ACHN renal it was 67.6 µM; with RPMI-8226 leukemia, 56.7 µM. The TGI in the test with EKVX NSCLC was 61 µM; in the test with U251 CNS, 53.4 µM; in the test on HCT-15 colon it was 36.5 µM; with MOLT-4 leukemia, 53.6 µM.
Take `COC1CC(N)C(O)C(C)O1` (stereo not drawn): the TGI with KM12 colon, in the test on IGROV1 ovarian, with NCI-H226 lung, in the test with MDA-MB-231 breast, with ACHN renal and with RPMI-8226 leukemia was over 100 µM throughout. The TGI with EKVX NSCLC, with U251 CNS, in the test on HCT-15 colon and with MOLT-4 leukemia was over 100 µM throughout.
Regarding `CC(=O)/C=C/c1ccc(OCc2ccc(Cl)cc2)cc1`, the GI50 in the test with KM12 colon was 513 µM; with IGROV1 ovarian, over 1000 µM; with NCI-H226 lung, over 1000 µM; in the test on MDA-MB-231 breast it was 629 µM; with ACHN renal, over 1000 µM; with RPMI-8226 leukemia, 237 µM. Further, the GI50 with EKVX NSCLC was 298 µM; with U251 CNS, over 1000 µM; in the test on HCT-15 colon it was 498 µM; in the test with MOLT-4 leukemia, 240 µM. Besides, the TGI in the test with KM12 colon, in the test with IGROV1 ovarian, in the test on NCI-H226 lung, in the test on MDA-MB-231 breast, in the test with ACHN renal and in the test on RPMI-8226 leukemia was over 1000 µM each time. The TGI with EKVX NSCLC, in the test with U251 CNS, in the test on HCT-15 colon and in the test on MOLT-4 leukemia was over 1000 µM throughout.
`COc1cc2c(c(OC)c1OC)-c1ccc(N=NC(N)=S)c(=O)cc1[C@@H](NC(C)=O)CC2`: the GI50 is 0.394 µM in the test with KM12 colon; 0.482 µM with IGROV1 ovarian; 2.01 µM with NCI-H226 lung; 0.592 µM in the test with MDA-MB-231 breast; 5.08 µM with ACHN renal; 0.708 µM in the test with RPMI-8226 leukemia. The GI50 is over 100 µM in the test on EKVX NSCLC, 0.426 µM in the test with U251 CNS, 6 µM with HCT-15 colon and 1.3 µM with MOLT-4 leukemia. Besides, the TGI with NCI-H226 lung is over 29.4 µM; in the test with MDA-MB-231 breast, over 27.7 µM; in the test on ACHN renal, over 100 µM; in the test on RPMI-8226 leukemia, over 100 µM; in the test with EKVX NSCLC, over 100 µM; in the test with U251 CNS, over 100 µM. The TGI with HCT-15 colon and in the test with MOLT-4 leukemia was over 100 µM throughout.
As for `CC(=O)OC1=CC2(OC(C)=O)CC(C)(C)C1C1C(=O)C=CC(=O)C12` (stereo not drawn), the TGI with KM12 colon was over 100 µM; in the test on IGROV1 ovarian, over 100 µM; in the test on NCI-H226 lung it was over 100 µM; in the test with MDA-MB-231 breast, over 100 µM; in the test with ACHN renal, 45.9 µM; in the test on RPMI-8226 leukemia it was over 100 µM. The TGI in the test with EKVX NSCLC, with U251 CNS, in the test with HCT-15 colon and with MOLT-4 leukemia was over 100 µM in each case.
For `CC1=Nc2c([nH]c(=S)[nH]c2=O)NC(c2c(Cl)cccc2Cl)C1` (stereo not drawn), the TGI in the test with KM12 colon turned out to be 4.51 µM; with IGROV1 ovarian it was 5.45 µM; in the test with NCI-H226 lung, 15 µM; in the test with MDA-MB-231 breast, 1.87 µM; in the test on ACHN renal, 11 µM; in the test with RPMI-8226 leukemia it was 4.04 µM. For the same compound, the TGI with EKVX NSCLC is 18.7 µM; with U251 CNS, 2.32 µM; with HCT-15 colon, 8.67 µM; in the test with MOLT-4 leukemia, 5.43 µM.
`O=[N+]([O-])c1cc2no[n+]([O-])c2cc1N1CCCCC1`: the TGI in the test with KM12 colon is 30.5 µM; with IGROV1 ovarian, 8.83 µM; with NCI-H226 lung, over 100 µM; with MDA-MB-231 breast it was 44.3 µM; with ACHN renal, 7.21 µM; in the test on RPMI-8226 leukemia it was 6.64 µM. The TGI in the test with EKVX NSCLC stood at 8.98 µM; with U251 CNS, 20.2 µM; in the test on HCT-15 colon, 11.9 µM; with MOLT-4 leukemia it was 4.95 µM.
`CC(=O)O[C@H]1CC[C@@]2(C)C(=C/C(=N/OCCN3CCCC3)[C@H]3[C@@H]4CC[C@H](OC(C)=O)[C@@]4(C)CC[C@@H]32)C1`: the GI50 is 40.7 µM in the test with KM12 colon; 31.4 µM in the test with IGROV1 ovarian; over 100 µM with NCI-H226 lung; 38.7 µM in the test with MDA-MB-231 breast; over 100 µM with ACHN renal; 22 µM in the test on RPMI-8226 leukemia. Further, the GI50 with EKVX NSCLC is over 100 µM; in the test with U251 CNS it was 67.1 µM; with HCT-15 colon it was 20.1 µM; with MOLT-4 leukemia, 29.6 µM. For the same compound, the TGI in the test with KM12 colon was over 100 µM; with IGROV1 ovarian it was over 100 µM; in the test on NCI-H226 lung, over 100 µM; with MDA-MB-231 breast, over 100 µM; in the test on ACHN renal, over 100 µM; in the test with RPMI-8226 leukemia, 53.3 µM. Also, the TGI is over 100 µM in the test with EKVX NSCLC, over 100 µM in the test with U251 CNS, 45 µM in the test on HCT-15 colon and 84.3 µM in the test with MOLT-4 leukemia.
With `CC(=O)Nc1n[n+]([O-])c2cc(C)ccc2[n+]1[O-]`, the TGI in the test on KM12 colon was 11.3 µM; in the test on IGROV1 ovarian, 5.33 µM; with NCI-H226 lung it was 27.8 µM; in the test with MDA-MB-231 breast, 23.4 µM; with ACHN renal, 11.2 µM; in the test with RPMI-8226 leukemia it was over 100 µM. Besides, the TGI in the test with EKVX NSCLC was 16.8 µM; with U251 CNS, 14.2 µM; with HCT-15 colon it was 14.9 µM; with MOLT-4 leukemia it was over 100 µM.
On to `O=C1N(Cc2ccccc2Cl)c2ccccc2C12NN=C(c1cccc(Cl)c1)S2` (stereo not drawn), for which the GI50 was 1.82 µM in the test on KM12 colon; 1.78 µM in the test with IGROV1 ovarian; 1.49 µM in the test with NCI-H226 lung; 2.02 µM with MDA-MB-231 breast; 1.81 µM in the test on ACHN renal; 2.36 µM in the test with RPMI-8226 leukemia. The GI50 in the test with EKVX NSCLC is 1.69 µM; with U251 CNS, 1.77 µM; with HCT-15 colon, 1.9 µM; in the test on MOLT-4 leukemia, 2.04 µM. Also, the TGI turned out to be 3.79 µM in the test with KM12 colon; 3.75 µM with IGROV1 ovarian; 2.86 µM in the test on NCI-H226 lung; 4.2 µM in the test on MDA-MB-231 breast; 3.43 µM with ACHN renal; 6.04 µM with RPMI-8226 leukemia. Besides, the TGI was 3.08 µM with EKVX NSCLC, 3.15 µM in the test on U251 CNS, 4.19 µM in the test on HCT-15 colon and 4.64 µM in the test on MOLT-4 leukemia.
Regarding `CCOC(=O)Nc1cc2ccccc2c(N=Nc2ccccc2)c1O`, the TGI with KM12 colon, with IGROV1 ovarian, with NCI-H226 lung, in the test on MDA-MB-231 breast, in the test on ACHN renal and with RPMI-8226 leukemia was over 100 µM throughout. The TGI in the test with EKVX NSCLC, in the test with U251 CNS, in the test with HCT-15 colon and in the test on MOLT-4 leukemia was over 100 µM in each case.
As for `CC(C)(C)N/N=C(\C(=O)NC1=C(Cl)C(=O)c2ccccc2C1=O)C1C=CCS1(=O)=O` (stereo not drawn), the TGI with KM12 colon is over 100 µM; in the test with IGROV1 ovarian it was 24.5 µM; in the test on NCI-H226 lung it was 27.9 µM; in the test on MDA-MB-231 breast, 32.4 µM; in the test with ACHN renal, 55.3 µM; with RPMI-8226 leukemia, over 100 µM. For the same compound, the TGI with EKVX NSCLC is 30.2 µM; in the test on U251 CNS, over 100 µM; in the test on HCT-15 colon, 22.9 µM; in the test on MOLT-4 leukemia it was over 100 µM.
Take `Cc1cccc2c3c(sc12)C(c1ccc(F)cc1)C(C#N)=C(N)O3` (stereo not drawn): the GI50 with KM12 colon was 0.064 µM; in the test with IGROV1 ovarian, 0.0744 µM; in the test with NCI-H226 lung, 0.239 µM; in the test on MDA-MB-231 breast, 0.346 µM; in the test with ACHN renal it was 0.0658 µM; in the test with RPMI-8226 leukemia, 0.048 µM. In addition, the GI50 in the test on EKVX NSCLC is 0.141 µM; in the test on U251 CNS it was 0.13 µM; in the test with HCT-15 colon, 0.0447 µM; in the test on MOLT-4 leukemia, 0.137 µM. In addition, the TGI in the test with KM12 colon was 11.1 µM; in the test with IGROV1 ovarian, 11.2 µM; in the test with NCI-H226 lung, 3.9 µM; in the test with MDA-MB-231 breast, 8.4 µM; in the test on ACHN renal, 13.2 µM; in the test with RPMI-8226 leukemia, 8.31 µM. Further, the TGI with EKVX NSCLC was found to be 17.6 µM; in the test with U251 CNS it was 12.6 µM; with HCT-15 colon, 10.7 µM; with MOLT-4 leukemia, 26.6 µM.
For the compound `Cc1ccc(C2NC(=O)c3ccccc3N2)c(C)c1` (stereo not drawn), the TGI was over 100 µM with KM12 colon; over 100 µM in the test on IGROV1 ovarian; 47.8 µM in the test with NCI-H226 lung; over 100 µM with MDA-MB-231 breast; over 100 µM in the test on ACHN renal; 12 µM with RPMI-8226 leukemia. For the same compound, the TGI in the test on EKVX NSCLC is over 100 µM; with U251 CNS, over 39.5 µM; in the test with HCT-15 colon, over 77 µM; in the test on MOLT-4 leukemia, over 100 µM.
